US9249129B2, “Morpholino substituted urea derivatives as mTOR inhibitors” (CELLZOME LIMITED, priority 2010, dated 2016)

Key:
Experiment in all cases: kinobeads assay with mass spectrometry detection of kinases (kinase selectivity profile)
Format in all cases: binding
kinases (kinome) [1] = target: T1, kinases (kinome) (Homo sapiens, UniProt P42338); conditions: PIK3Cb (Lipid Kinase), IPI00031388
T1 construct: determined in kinobeads assays with mass spectrometry detection of kinases as described previously; endogenous in cells; host or cells: cell lysate
Excerpt: (§1) The protein kinase complement of the human genome (the kinome) was described previously (Manning et al., 2002. Science 298(5600):1912-1934). Sequence accession numbers are defined by the International Protein Index (IPI) (Kersey et al., 2004. Proteomics 4(7):1985-1988).

kinases (kinome) [2] = target: T2, kinases (kinome) (Homo sapiens, UniProt Q00535); conditions: CDK5 (CMGC), IPI00023530
T2 construct: determined in kinobeads assays with mass spectrometry detection of kinases as described previously; endogenous in cells; host or cells: cell lysate
Excerpt: as §1

kinases (kinome) [3] = target: T3, kinases (kinome) (Homo sapiens, UniProt P48729); conditions: CK1a (CK1), IPI00448798
T3 construct: determined in kinobeads assays with mass spectrometry detection of kinases as described previously; endogenous in cells; host or cells: cell lysate
Excerpt: as §1

kinases (kinome) [4] = target: T4, kinases (kinome) (Homo sapiens, UniProt Q04759); conditions: PKCt (AGC), IPI00029196
T4 construct: determined in kinobeads assays with mass spectrometry detection of kinases as described previously; endogenous in cells; host or cells: cell lysate
Excerpt: as §1

kinases (kinome) [5] = target: T5, kinases (kinome) (Homo sapiens, UniProt Q12851); conditions: GCK (STE), IPI00149094
T5 construct: determined in kinobeads assays with mass spectrometry detection of kinases as described previously; endogenous in cells; host or cells: cell lysate
T5 sequence (Q12851 1-820): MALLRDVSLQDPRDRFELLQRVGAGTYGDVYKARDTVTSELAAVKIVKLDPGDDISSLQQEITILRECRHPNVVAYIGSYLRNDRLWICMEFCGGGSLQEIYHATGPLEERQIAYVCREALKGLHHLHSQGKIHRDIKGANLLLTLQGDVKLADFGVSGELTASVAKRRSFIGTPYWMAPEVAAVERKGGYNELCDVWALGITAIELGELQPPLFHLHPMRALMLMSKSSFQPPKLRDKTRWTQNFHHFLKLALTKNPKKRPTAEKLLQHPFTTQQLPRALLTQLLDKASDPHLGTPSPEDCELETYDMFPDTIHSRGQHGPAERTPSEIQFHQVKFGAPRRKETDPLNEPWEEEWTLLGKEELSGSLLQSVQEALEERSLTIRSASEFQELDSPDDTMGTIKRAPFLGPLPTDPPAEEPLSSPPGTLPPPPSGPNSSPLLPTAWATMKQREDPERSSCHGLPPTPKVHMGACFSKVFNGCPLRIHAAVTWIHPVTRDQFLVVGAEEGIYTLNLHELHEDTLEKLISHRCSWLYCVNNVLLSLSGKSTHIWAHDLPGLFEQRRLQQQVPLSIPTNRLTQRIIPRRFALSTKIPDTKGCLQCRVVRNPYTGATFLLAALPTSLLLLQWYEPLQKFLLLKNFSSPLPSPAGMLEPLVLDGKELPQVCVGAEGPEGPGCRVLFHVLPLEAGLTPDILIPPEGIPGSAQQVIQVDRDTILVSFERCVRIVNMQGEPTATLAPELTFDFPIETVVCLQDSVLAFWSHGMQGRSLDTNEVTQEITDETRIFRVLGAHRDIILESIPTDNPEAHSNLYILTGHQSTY
Excerpt: as §1

kinases (kinome) [6] = target: T6, kinases (kinome) (Homo sapiens, UniProt O60885); conditions: BRD4 (Atypical), IPI00440727
T6 construct: determined in kinobeads assays with mass spectrometry detection of kinases as described previously; endogenous in cells; host or cells: cell lysate
Excerpt: as §1

kinases (kinome) [7] = target: T7, kinases (kinome) (Homo sapiens, UniProt Q13043); conditions: MST1 (STE), IPI00011488
T7 construct: determined in kinobeads assays with mass spectrometry detection of kinases as described previously; endogenous in cells; host or cells: cell lysate
T7 sequence (Q13043 1-487): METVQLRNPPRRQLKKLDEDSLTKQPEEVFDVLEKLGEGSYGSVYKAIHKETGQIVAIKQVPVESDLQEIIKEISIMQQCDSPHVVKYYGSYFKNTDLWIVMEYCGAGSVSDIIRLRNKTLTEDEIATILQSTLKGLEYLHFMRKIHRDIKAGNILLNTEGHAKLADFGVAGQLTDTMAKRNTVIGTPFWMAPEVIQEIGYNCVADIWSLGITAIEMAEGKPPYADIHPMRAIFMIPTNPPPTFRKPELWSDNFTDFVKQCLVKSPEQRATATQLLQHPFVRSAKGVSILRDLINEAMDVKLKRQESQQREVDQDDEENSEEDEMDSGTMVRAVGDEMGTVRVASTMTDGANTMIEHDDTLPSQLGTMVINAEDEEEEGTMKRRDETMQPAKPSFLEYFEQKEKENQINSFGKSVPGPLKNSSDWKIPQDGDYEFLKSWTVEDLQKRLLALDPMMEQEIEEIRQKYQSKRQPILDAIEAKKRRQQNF
Excerpt: as §1

kinases (kinome) [8] = target: T8, kinases (kinome) (Homo sapiens, UniProt Q08345); conditions: DDR1 (TK), IPI00657861
T8 construct: determined in kinobeads assays with mass spectrometry detection of kinases as described previously; endogenous in cells; host or cells: cell lysate
Excerpt: as §1

kinases (kinome) [9] = target: kinases (kinome) (Homo sapiens, UniProt Q15418); conditions: RSK3 (AGC), IPI00477982
Excerpt: as §1

kinases (kinome) [10] = target: T9, kinases (kinome) (Homo sapiens, UniProt Q9Y6R4); conditions: MAP3K4 (STE), IPI00386260
T9 construct: determined in kinobeads assays with mass spectrometry detection of kinases as described previously; endogenous in cells; host or cells: cell lysate
Excerpt: as §1

kinases (kinome) [11] = target: T10, kinases (kinome) (Homo sapiens, UniProt P15056); conditions: BRAF (TKL), IPI00303797
T10 construct: determined in kinobeads assays with mass spectrometry detection of kinases as described previously; endogenous in cells; host or cells: cell lysate
Excerpt: as §1

kinases (kinome) [12] = target: T11, kinases (kinome) (Homo sapiens, UniProt Q13705); conditions: ACTR2B (TKL), IPI00437565
T11 construct: determined in kinobeads assays with mass spectrometry detection of kinases as described previously; endogenous in cells; host or cells: cell lysate
Excerpt: as §1

kinases (kinome) [13] = target: T12, kinases (kinome) (Homo sapiens, UniProt P06239); conditions: LCK (TK), IPI00515097
T12 construct: determined in kinobeads assays with mass spectrometry detection of kinases as described previously; endogenous in cells; host or cells: cell lysate
Excerpt: as §1

kinases (kinome) [14] = target: T13, kinases (kinome) (Homo sapiens, UniProt O96013); conditions: PAK4 (STE), IPI00014068
T13 construct: determined in kinobeads assays with mass spectrometry detection of kinases as described previously; endogenous in cells; host or cells: cell lysate
Excerpt: as §1

kinases (kinome) [15] = target: T14, kinases (kinome) (Homo sapiens, UniProt Q92918); conditions: HPK1 (STE), IPI00020258
T14 construct: determined in kinobeads assays with mass spectrometry detection of kinases as described previously; endogenous in cells; host or cells: cell lysate
Excerpt: as §1

kinases (kinome) [16] = target: T15, kinases (kinome) (Homo sapiens, UniProt O43353); conditions: RIPK2 (TKL), IPI00021917
T15 construct: determined in kinobeads assays with mass spectrometry detection of kinases as described previously; endogenous in cells; host or cells: cell lysate
Excerpt: as §1

kinases (kinome) [17] = target: T16, kinases (kinome) (Homo sapiens, UniProt P27448); conditions: MARK3 (CAMK), IPI00183118
T16 construct: determined in kinobeads assays with mass spectrometry detection of kinases as described previously; endogenous in cells; host or cells: cell lysate
Excerpt: as §1

kinases (kinome) [18] = target: T17, kinases (kinome) (Homo sapiens, UniProt Q9H0K1); conditions: QIK (CAMK), IPI00465291
T17 construct: determined in kinobeads assays with mass spectrometry detection of kinases as described previously; endogenous in cells; host or cells: cell lysate
Excerpt: as §1

kinases (kinome) [19] = target: T18, kinases (kinome) (Homo sapiens, UniProt P53671); conditions: LIMK2 (TKL), IPI00025698
T18 construct: determined in kinobeads assays with mass spectrometry detection of kinases as described previously; endogenous in cells; host or cells: cell lysate
Excerpt: as §1

Measured: IC50

T14 sequence (Q92918 whole entry): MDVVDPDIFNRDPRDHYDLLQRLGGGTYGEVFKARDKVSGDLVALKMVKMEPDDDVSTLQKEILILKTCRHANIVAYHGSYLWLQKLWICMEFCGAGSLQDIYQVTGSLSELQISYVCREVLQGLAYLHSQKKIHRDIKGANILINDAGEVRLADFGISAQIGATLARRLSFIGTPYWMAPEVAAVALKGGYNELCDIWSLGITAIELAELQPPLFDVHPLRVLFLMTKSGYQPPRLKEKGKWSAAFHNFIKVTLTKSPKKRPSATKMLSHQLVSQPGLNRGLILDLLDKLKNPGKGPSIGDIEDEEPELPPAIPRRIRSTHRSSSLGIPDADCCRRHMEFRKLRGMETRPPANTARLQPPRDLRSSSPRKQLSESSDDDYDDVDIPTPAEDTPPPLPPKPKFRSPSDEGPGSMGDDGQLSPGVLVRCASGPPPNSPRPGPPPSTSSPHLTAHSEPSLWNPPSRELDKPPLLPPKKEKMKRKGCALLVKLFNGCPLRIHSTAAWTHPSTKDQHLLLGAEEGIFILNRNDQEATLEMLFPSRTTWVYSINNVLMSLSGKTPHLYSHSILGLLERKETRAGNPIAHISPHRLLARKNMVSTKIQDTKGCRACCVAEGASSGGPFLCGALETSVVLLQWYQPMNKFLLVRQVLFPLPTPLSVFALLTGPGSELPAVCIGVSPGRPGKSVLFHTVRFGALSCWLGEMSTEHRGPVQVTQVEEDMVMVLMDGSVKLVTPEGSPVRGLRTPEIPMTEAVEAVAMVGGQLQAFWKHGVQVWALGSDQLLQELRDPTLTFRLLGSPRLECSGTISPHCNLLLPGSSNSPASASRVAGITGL
T16 sequence (P27448 whole entry): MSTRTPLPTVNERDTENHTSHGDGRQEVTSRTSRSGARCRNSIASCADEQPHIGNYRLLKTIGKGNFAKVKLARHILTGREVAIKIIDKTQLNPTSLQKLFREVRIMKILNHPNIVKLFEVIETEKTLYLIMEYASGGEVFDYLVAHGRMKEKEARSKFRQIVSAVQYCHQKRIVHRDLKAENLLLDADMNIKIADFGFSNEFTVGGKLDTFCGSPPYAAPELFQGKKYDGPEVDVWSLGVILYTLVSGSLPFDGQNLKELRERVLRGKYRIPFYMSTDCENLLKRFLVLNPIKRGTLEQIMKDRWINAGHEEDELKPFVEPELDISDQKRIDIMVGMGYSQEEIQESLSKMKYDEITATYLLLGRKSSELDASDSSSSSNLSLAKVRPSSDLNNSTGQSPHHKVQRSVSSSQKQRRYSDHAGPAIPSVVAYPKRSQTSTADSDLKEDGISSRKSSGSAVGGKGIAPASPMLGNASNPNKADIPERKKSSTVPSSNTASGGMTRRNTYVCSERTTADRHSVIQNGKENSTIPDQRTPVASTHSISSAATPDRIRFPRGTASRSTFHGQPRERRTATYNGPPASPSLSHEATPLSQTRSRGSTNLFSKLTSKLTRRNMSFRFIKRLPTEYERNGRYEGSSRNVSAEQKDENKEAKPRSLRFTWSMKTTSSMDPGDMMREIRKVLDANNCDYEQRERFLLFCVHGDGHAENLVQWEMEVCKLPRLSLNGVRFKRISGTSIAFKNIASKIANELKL
T9 sequence (Q9Y6R4 whole entry): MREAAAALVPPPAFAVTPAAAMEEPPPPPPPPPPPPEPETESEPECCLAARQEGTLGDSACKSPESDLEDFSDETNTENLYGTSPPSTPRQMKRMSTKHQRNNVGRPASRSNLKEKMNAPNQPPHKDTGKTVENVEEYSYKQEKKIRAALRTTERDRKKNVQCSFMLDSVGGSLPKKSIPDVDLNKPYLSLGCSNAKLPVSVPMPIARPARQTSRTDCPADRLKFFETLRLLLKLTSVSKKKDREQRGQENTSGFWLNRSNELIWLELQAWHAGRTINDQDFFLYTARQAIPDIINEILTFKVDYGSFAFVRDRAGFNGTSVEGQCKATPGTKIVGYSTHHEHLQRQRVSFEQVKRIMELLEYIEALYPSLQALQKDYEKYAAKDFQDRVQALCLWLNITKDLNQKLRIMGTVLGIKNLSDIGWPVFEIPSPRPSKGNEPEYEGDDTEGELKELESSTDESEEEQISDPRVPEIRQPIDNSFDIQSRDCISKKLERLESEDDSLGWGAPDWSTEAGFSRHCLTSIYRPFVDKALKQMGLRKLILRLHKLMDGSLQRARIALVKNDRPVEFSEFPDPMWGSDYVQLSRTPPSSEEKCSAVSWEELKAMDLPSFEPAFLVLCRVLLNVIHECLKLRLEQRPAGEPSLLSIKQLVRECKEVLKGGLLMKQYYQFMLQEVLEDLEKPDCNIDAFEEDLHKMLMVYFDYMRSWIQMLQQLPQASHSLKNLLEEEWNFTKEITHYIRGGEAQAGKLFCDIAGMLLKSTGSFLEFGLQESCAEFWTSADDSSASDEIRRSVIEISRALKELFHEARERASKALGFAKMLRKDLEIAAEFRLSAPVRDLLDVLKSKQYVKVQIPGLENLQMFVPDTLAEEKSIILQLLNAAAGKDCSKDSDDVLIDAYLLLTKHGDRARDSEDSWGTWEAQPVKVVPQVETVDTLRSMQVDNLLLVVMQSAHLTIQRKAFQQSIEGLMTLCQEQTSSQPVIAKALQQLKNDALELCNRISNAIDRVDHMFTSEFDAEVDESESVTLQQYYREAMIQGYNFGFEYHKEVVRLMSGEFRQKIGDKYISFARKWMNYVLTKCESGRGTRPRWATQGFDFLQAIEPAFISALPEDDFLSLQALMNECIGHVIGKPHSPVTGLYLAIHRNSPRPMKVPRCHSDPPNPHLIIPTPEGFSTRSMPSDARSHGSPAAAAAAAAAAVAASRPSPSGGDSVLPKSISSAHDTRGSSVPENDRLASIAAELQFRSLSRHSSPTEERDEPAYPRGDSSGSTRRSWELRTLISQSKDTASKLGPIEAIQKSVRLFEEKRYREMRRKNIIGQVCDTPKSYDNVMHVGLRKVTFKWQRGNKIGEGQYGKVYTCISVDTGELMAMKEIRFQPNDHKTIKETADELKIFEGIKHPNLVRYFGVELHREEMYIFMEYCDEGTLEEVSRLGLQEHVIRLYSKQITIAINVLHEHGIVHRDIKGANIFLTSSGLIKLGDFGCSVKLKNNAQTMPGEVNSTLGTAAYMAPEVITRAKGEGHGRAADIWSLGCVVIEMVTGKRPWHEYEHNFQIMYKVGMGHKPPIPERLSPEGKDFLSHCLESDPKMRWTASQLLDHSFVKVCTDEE
T17 sequence (Q9H0K1 whole entry): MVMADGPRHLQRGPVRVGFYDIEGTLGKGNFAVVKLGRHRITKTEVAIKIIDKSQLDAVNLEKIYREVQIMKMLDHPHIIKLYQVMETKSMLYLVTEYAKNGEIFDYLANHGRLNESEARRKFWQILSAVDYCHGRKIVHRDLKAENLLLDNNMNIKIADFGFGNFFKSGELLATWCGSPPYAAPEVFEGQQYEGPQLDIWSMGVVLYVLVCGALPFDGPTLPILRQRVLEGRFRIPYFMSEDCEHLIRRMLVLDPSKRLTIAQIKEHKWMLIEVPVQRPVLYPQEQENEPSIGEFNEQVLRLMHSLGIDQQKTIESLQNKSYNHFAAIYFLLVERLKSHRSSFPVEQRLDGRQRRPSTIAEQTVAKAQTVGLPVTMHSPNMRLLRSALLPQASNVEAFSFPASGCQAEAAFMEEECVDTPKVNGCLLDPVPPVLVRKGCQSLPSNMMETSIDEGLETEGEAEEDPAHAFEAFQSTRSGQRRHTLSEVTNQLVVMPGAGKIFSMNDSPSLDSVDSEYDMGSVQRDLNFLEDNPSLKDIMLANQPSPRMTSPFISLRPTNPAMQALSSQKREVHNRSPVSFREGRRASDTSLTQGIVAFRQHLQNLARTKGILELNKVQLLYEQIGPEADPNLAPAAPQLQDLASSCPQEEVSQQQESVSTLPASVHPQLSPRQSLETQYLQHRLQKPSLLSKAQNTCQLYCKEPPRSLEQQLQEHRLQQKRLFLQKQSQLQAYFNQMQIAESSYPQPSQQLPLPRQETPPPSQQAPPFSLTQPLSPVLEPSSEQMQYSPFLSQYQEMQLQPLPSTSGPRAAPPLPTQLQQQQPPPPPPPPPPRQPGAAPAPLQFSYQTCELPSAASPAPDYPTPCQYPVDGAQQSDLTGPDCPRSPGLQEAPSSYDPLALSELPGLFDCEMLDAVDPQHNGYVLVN
T18 sequence (P53671 whole entry): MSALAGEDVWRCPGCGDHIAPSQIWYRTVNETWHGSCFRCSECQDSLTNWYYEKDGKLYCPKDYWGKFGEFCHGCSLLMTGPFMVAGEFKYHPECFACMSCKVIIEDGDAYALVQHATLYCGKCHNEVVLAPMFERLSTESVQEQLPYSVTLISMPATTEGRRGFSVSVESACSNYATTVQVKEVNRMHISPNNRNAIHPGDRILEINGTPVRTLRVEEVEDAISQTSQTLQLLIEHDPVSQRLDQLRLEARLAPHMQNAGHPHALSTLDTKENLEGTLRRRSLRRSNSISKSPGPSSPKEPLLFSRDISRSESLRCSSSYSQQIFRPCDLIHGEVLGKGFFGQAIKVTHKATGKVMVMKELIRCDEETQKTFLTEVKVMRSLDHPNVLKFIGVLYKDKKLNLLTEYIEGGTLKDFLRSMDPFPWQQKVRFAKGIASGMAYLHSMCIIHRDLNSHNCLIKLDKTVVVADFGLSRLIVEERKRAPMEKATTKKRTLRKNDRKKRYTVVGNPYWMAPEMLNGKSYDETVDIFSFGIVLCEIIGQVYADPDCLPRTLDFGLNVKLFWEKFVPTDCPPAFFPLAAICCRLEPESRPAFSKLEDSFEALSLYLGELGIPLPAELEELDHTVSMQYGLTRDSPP
T3 sequence (P48729 whole entry): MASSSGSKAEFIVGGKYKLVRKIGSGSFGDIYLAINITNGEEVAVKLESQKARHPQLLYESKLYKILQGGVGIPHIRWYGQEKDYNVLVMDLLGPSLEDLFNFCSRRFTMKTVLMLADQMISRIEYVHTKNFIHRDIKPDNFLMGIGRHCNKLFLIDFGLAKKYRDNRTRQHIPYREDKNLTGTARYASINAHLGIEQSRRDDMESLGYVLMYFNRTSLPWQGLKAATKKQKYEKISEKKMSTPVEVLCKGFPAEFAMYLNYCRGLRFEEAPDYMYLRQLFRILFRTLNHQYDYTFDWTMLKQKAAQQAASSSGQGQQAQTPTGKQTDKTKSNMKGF

C[C@H]1COCCN1c1nc(-c2ccc(NC(=O)N[C@H]3CCC[C@@H]3O)cc2)cc(-c2cc(F)ccc2S(C)(=O)=O)n1 [Example 76, 1-(4-(6-(5-fluoro-2-(methylsulfonyl)phenyl)-2-((S)-3-methylmorpholino)pyrimidin-4-yl)phenyl)-3-((1S,2S)-2-hydroxycyclopentyl)urea]
> 10 µM: all assays above

C[C@H]1COCCN1c1nc(-c2ccc(NC(=O)NC3CC3)cc2)cc(-c2ccccc2S(C)(=O)=O)n1 [Example 4, (S)-1-cyclopropyl-3-(4-(2-(3-methylmorpholino)-6-(2-(methylsulfonyl)phenyl)pyrimidin-4-yl)phenyl)urea]
> 10 µM: all assays above

C[C@H]1COCCN1c1cc(-c2ccccc2S(C)(=O)=O)nc(-c2ccc(NC(=O)NC3CC3)cc2)n1 [Example 6, (S)-1-cyclopropyl-3-(4-(4-(3-methylmorpholino)-6-(2-(methylsulfonyl)phenyl)pyrimidin-2-yl)phenyl)urea]
> 10 µM: all assays above

C[C@H]1COCCN1c1cc(-c2ccccn2)nc(-c2ccc(NC(=O)NCCO)cc2)n1 [Example 43, (S)-1-(2-hydroxyethyl)-3-(4-(4-(3-methylmorpholino)-6-(pyridin-2-yl)pyrimidin-2-yl)phenyl)urea]
> 10 µM: all assays above

CCNC(=O)Nc1ccc(-c2cc(-c3ccccc3C#N)nc(N3CCOC[C@@H]3C)n2)cc1 [Example 8, (S)-1-(4-(6-(2-cyanophenyl)-2-(3-methylmorpholino)pyrimidin-4-yl)phenyl)-3-ethylurea]
not listed: kinases (kinome) [8] | kinases (kinome) [13]
> 10 µM: all other assays above
